Experimental data from PubChem BioAssay (NCI).
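GI50 = concentration required for 50% inhibition of growth. TGI marks complete inhibition of growth.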

Experiments:
Assay in all cases: NCI tumour cell line growth inhibition, 384-well format
ACHN renal = tested on: ACHN renal
BT-549 breast = tested on: BT-549 breast
COLO 205 colon = tested on: COLO 205 colon
HCC-2998 colon = tested on: HCC-2998 colon
HS 578T breast = tested on: HS 578T breast
K-562 leukemia = tested on: K-562 leukemia
MDA-MB-435 melanoma = tested on: MDA-MB-435 melanoma
SF-268 CNS = tested on: SF-268 CNS
SF-539 CNS = tested on: SF-539 CNS
SK-MEL-2 melanoma = tested on: SK-MEL-2 melanoma
SNB-19 CNS = tested on: SNB-19 CNS
TK-10 renal = tested on: TK-10 renal
UO-31 renal = tested on: UO-31 renal

Question: Which results are given for `Cc1cc(C)c(CNC(=O)c2cc(-c3ccc(CN4CCOCC4)cc3)cc3c2cnn3C2CCCC2)c(=O)[nH]1`?
Answer: GI50 (ACHN renal): 10.3 µM; TGI (ACHN renal): 23.9 µM; GI50 (BT-549 breast): 8.98 µM; TGI (BT-549 breast): 22.1 µM; GI50 (COLO 205 colon): 8.25 µM; TGI (COLO 205 colon): 20.5 µM; GI50 (HCC-2998 colon): 6.61 µM; TGI (HCC-2998 colon): 17.7 µM; GI50 (HS 578T breast): 2920 nM; TGI (HS 578T breast): 7.44 µM; GI50 (K-562 leukemia): 4.84 µM; TGI (K-562 leukemia): 16.5 µM; GI50 (MDA-MB-435 melanoma): 12 µM; TGI (MDA-MB-435 melanoma): 25.3 µM; GI50 (SF-268 CNS): 6.37 µM; TGI (SF-268 CNS): 13.6 µM; GI50 (SF-539 CNS): 6.86 µM; TGI (SF-539 CNS): 19.8 µM; GI50 (SK-MEL-2 melanoma): 13 µM; TGI (SK-MEL-2 melanoma): 25.7 µM; GI50 (SNB-19 CNS): 9.84 µM; TGI (SNB-19 CNS): 23.4 µM; GI50 (TK-10 renal): 968 nM; TGI (TK-10 renal): 21.9 µM; GI50 (UO-31 renal): 5.87 µM; TGI (UO-31 renal): 20.6 µM
